From ChEMBL document CHEMBL3351300, “GnRH antagonists: the promise of treating sex-hormone-related diseases” (ACS Med Chem Lett, 2014)

Target: T1, Gonadotropin-releasing hormone receptor (Homo sapiens, UniProt P30968)
T1 sequence (P30968 whole entry): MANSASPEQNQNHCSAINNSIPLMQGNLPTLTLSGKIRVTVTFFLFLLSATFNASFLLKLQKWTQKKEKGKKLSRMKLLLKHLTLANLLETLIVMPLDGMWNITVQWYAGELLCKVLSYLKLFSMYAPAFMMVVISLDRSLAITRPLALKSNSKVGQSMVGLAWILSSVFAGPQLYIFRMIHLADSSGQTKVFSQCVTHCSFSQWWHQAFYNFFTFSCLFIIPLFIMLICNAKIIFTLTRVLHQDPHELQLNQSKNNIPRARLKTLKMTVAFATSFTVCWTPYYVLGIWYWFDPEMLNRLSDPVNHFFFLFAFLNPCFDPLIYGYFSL
Experiment: Antagonist activity against human GnRH receptor expressed in CHO cells by IP-one HTRF assay
Type: cell-based

SMILES	IC50 [nM]
O=C(NCc1ncc(Cl)cc1C(F)(F)F)c1ccc2c(c1)C1(CCS(=O)(=O)CC1)C(C1CC1)N2S(=O)(=O)c1ccc(F)cc1 (single isomer, unassigned; enantiomer 1)	3.3
N#Cc1cccc(S(=O)(=O)N2c3ccc(C(=O)NCc4ncc(C(F)(F)F)cc4F)cc3C3(CCS(=O)(=O)CC3)C2C2CC2)c1 (single isomer, unassigned; enantiomer 1)	107
O=C(NCc1ncc(C(F)(F)F)cc1Cl)c1ccc2c(c1)C1(CCS(=O)(=O)CC1)C(C1CC1)N2S(=O)(=O)c1ccc(Cl)cc1 (single isomer, unassigned; enantiomer 1)	9350
O=C(NCc1ncc(Cl)cc1C(F)(F)F)c1ccc2c(c1)C1(CCS(=O)(=O)CC1)C(C1CC1)N2S(=O)(=O)c1ccc(F)cc1 (single isomer, unassigned; enantiomer 2)	4080
O=C(NCc1ncc(C(F)(F)F)cc1Cl)c1ccc2c(c1)C1(CCS(=O)(=O)CC1)C(C1CC1)N2S(=O)(=O)c1cccc(OC(F)(F)F)c1 (single isomer, unassigned; enantiomer 2)	4210

The remaining lines, values ahead:

IC50 [nM]	SMILES
68	O=C(NCc1ncc(C(F)(F)F)cc1Cl)c1ccc2c(c1)C1(CCS(=O)(=O)CC1)C(C1CC1)N2S(=O)(=O)c1cccc(OC(F)(F)F)c1 (single isomer, unassigned; enantiomer 1)
2310	N#Cc1cccc(S(=O)(=O)N2c3ccc(C(=O)NCc4ncc(C(F)(F)F)cc4F)cc3C3(CCS(=O)(=O)CC3)C2C2CC2)c1 (single isomer, unassigned; enantiomer 2)
5.5	O=C(NCc1ncc(C(F)(F)F)cc1Cl)c1ccc2c(c1)C1(CCS(=O)(=O)CC1)C(C1CC1)N2S(=O)(=O)c1ccc(Cl)cc1 (single isomer, unassigned; enantiomer 2)
